Tests used:
Cat epithelium = experiment: Quidel Allergen Screen: reactivity of immobilized allergen with allergy patient IgE; type: biochemical; conditions: 1% sample, 100 μL/stick, room temperature 2 hours; distilled water control = 0
Excerpt: (§1) Quidel Allergen Screen (manufactured by Xenith Biomed) which is a reagent for detecting antigen-specific IgE antibody by using enzyme-labeled anti-IgE antibody was used to measure the reactivity between the allergen (house dust, Dermatophagoides farinae, Dermatophagoides pteronyssinus, cat epidermis, Cryptomeria japonica, ragweed, and the like) immobilized on a dip stick and the IgE antibody from the allergy patient by the procedure as described below.
(§2) The allergen stick was placed in a wetting box with the pad side facing upward, and the stick was impregnated with the product of the present invention adjusted to 1% at an amount of 100 μL/stick and left at room temperature for 2 hours. Each pad was washed evenly for 30 seconds with physiological saline in a washing bottle, and 50 μL/stick of the serum collected from an allergy patient was added dropwise to the pad and the serum was evenly spread. The wetting box was covered with lid and allowed to stand for 18 hours at room temperature. After the completion of the reaction, the pad was washed evenly for 20 seconds by the physiological saline in a washing bottle.
(§3) About 1 mL of enzyme-labeled anti-IgE antibody was placed in a test tube, and allergen stick is placed in the test tube with the pad facing downward after washing the allergen stick and shaking off the excess water, and the reaction was allowed to take place at room temperature for 30 minutes. After the termination of the reaction, each pad was evenly washed with tap water for 2 minutes. At this occasion, disappearance of the red color on the pad was confirmed. About 1 mL of the substrate solution was poured into test tube, and allergen stick was placed in the test tube with the pad facing downward after washing the allergen stick and shaking off the excess water, and the reaction was allowed to take place at room temperature for 30 minutes. After the completion of the reaction, reaction was terminated by absorbing the water impregnated in the pad with a paper towel by gently patting the pad with the paper towel from the rear side of the pad. Next, intensity of the blue color developed was measured with an image analyzer, and decrease in the reactivity by the product of the present invention was calculated by the following equation by using the color intensity attained when the IgE from allergy patient was used with distilled water treatment for the control.
(§4) Allergen inactivation effect (%)=100−{(IgE reaction intensity when treated by the product of the present invention)−(reaction intensity of the negative control)}/{(IgE reaction intensity of the control treated by distilled water)−(reaction intensity of the negative control)×100

House dust 1 = experiment: as above; type: biochemical; conditions: 1% sample, 100 μL/stick, room temperature 2 hours; distilled water control = 0
Excerpt: as §1, §2, §3, §4

[1] = tested on: Dermatophagoides pteronyssinus; experiment: as above; type: biochemical; conditions: 1% sample, 100 μL/stick, room temperature 2 hours; distilled water control = 0
Excerpt: as §1, §2, §3, §4

Dermatophagoides farinae = experiment: as above; type: biochemical; conditions: 1% sample, 100 μL/stick, room temperature 2 hours; distilled water control = 0
Excerpt: as §1, §2, §3, §4

[2] = target: T1, Dermatophagoides allergen Derf2 (Dermatophagoides farinae, UniProt Q00855); experiment: Derf2 sandwich ELISA of mite extract after treatment with sample; type: biochemical; conditions: 1% sample solution mixed 1:1 with 0.5 mg/mL mite extract, room temperature 2 hours; distilled water control = 1; lower = more inactivation
T1 construct: purchased Torii Pharmaceutical Co., Ltd; host or cells: mite extract (natural allergen extract)
T1 sequence (Q00855 18-146): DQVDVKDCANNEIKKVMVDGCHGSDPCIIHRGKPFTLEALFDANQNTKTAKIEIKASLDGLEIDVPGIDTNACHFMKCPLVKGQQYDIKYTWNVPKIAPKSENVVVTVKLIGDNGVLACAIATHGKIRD
Method: (1) The polysaccharide derivative of the present invention was dissolved in distilled water to prepare 1% solution. Quantity of Dermatophagoides allergen was measured as a typical allergen in the indoor environment by sandwich ELISA using a mouse monoclonal antibody. More specifically, quantity of Dermatophagoides allergen Derf2 was measured by using Derf2 antibody and a labeled antibody manufactured by Asahi Brewery, Ltd.
The allergen inactivation effect is indicated in terms of the ratio in relation to the control wherein the sample was treated in the same way except for the use of distilled water, namely, by assuming the Derf2 quantity in the control as 1.
(2) Scratch extract “mite” (manufactured by Torii Pharmaceutical Co., Ltd.) was placed in a dialysis tube, and dialyzed overnight in 10% PBS (4° C.) to remove glycerol in the extract. […] Quantity of Derf2 in the reaction solution was determined by using anti-Derf2 monoclonal antibody (15E11) and HRP-labeled anti-Derf2 monoclonal antibody (13A4) manufactured by Asahi Brewery, Ltd. in accordance with the protocol attached with the product, and using Derf2 for the Derf2 antigen for depicting the calibration curve.
Quantity of the Derf2 treated with various samples was calculated in relation to the quantity of Derf2 treated with the distilled water, which was assumed to be 1.

Ceder = experiment: Quidel Allergen Screen: reactivity of immobilized allergen with allergy patient IgE; type: biochemical, Cryptomeria japonica; conditions: 1% sample, 100 μL/stick, room temperature 2 hours; distilled water control = 0
Excerpt: as §1
The allergen stick was placed in a wetting box with the pad side facing upward, and the stick was impregnated with the product of the present invention adjusted to 1% at an amount of 100 μL/stick and left at room temperature for 2 hours. […]
About 1 mL of enzyme-labeled anti-IgE antibody was placed in a test tube, and allergen stick is placed in the test tube with the pad facing downward after washing the allergen stick and shaking off the excess water, and the reaction was allowed to take place at room temperature for 30 minutes. […] Next, intensity of the blue color developed was measured with an image analyzer, and decrease in the reactivity by the product of the present invention was calculated by the following equation by using the color intensity attained when the IgE from allergy patient was used with distilled water treatment for the control. […]

O=C(OC[C@H]1O[C@@H](OC(=O)c2cc(O)c(O)c(OC(=O)c3cc(O)c(O)c(O)c3)c2)[C@H](OC(=O)c2cc(O)c(O)c(OC(=O)c3cc(O)c(O)c(O)c3)c2)[C@@H](OC(=O)c2cc(O)c(O)c(OC(=O)c3cc(O)c(O)c(O)c3)c2)[C@@H]1OC(=O)c1cc(O)c(O)c(OC(=O)c2cc(O)c(O)c(O)c2)c1)c1cc(O)c(O)c(OC(=O)c2cc(O)c(O)c(O)c2)c1 [Tannic acid]
Allergen inactivating effect (%) <Animal allergen> Cat epithelium (Cat epithelium): 92%
Allergen inactivating effect (%) <Animal allergen> House dust 1 (House dust 1): 83%
Allergen inactivating effect (%) <Animal allergen> Dermatophagoides pteronyssinus [1]: 70%
Allergen inactivating effect (%) <Animal allergen> Dermatophagoides farinae (Dermatophagoides farinae): 62%
Quantity of Derf2 (Ratio to the control) [2]: 0.2
Allergen inactivating effect (%) <Plant allergen> Ceder (Ceder): 78%
